Assay results reported in patent US20260083769A1, “2-Aminopropane-1,3-Diol-Capped Cationic Peptoids for Nucleic Acid Delivery” (NUTCRACKER THERAPEUTICS, INC., priority 2022, published 2026).
“Also recorded” adds a separate entry of the source. Read-outs that look alike come from different tables or passages of the source. Where a SMILES comes first, the peptide text is derived from it. [ ]: non-standard residue; d: D form. N(2-ethylhexyl)Gly = CCCCC(CC)CNCC(=O)O; Gly(N-dodecyl) = CCCCCCCCCCCCNCC(=O)O; N(CH(CH2OH)2)Gly = O=C(O)CNC(CO)CO; NHexGly = CCCCCCNCC(=O)O

What was measured:
BALB/c mice = test: Serum anti-RSV antibody (aRSV) after IV dose of aRSV mRNA delivery vehicles, IgG ELISA; format: in vivo; settings: for serum levels of aRSV (secreted protein expression): BALB/c mice, IV, 0.75 mg/kg mRNA, after 24 hours, IgG ELISA; for secreted protein (serum aRSV) expression in vivo, comparison of monomer order isomers: Compound 31 versus Compound 41
Procedure: For imaging studies, female BALB/c mice (6-8 weeks old) were obtained and acclimatized for a minimum of 3 days prior to experiments. The animals were maintained on a 12 hour light cycle in a temperature and humidity controlled room. A daily health check was performed as well as food and water check. For dosing, mice were injected with 2.5 μg fLuc mRNA-containing delivery vehicles intravenously in 100 μL total injection volume. At 6 hours post-injection, mice were anesthetized with isoflurane, and injected intraperitoneally with 30 mg/mL D-luciferin at a dose of 10 μL per gram bodyweight intraperitoneally. Imaging was done 10 minutes post D-luciferin injection using an IVIS® Spectrum Imaging System. Immediately after in vivo imaging, mice were terminally bled by cardiac puncture and euthanized. The organs of interest were harvested, placed in black 24-well plates, and imaged. Living Image® software was used to quantify the total photon flux in regions of interest. For secreted protein studies, mice were injected with aRSV mRNA-containing delivery vehicles intravenously in 100 μL total injection volume. Mice were euthanized after 24 hours, with serum collection at 6 and 24 hours post-injection. Serum was used to quantify secreted aRSV levels using ELISA following the manufacturer's recommendation for IgG using a standard curve generated from aRSV protein.
To understand how the delivery vehicles disclosed herein (e.g., delivery vehicles comprising compounds of Formula (I)) performed as systemic delivery vehicles, the top four candidates for firefly luciferase expression from the optimized DOE model (Compounds 12, 41, 34, and 35) were evaluated for their ability to produce anti-RSV antibody in BALB/c mice. Anti-RSV was chosen as a model target due to the availability of therapeutic benchmarking information and sequence availability. Delivery vehicles comprising aRSV were formulated from two mRNA molecules encoding the heavy and light chain at a 2:1 mass ratio. All delivery vehicles were below 120 nm in size with encapsulation greater than 85% (Table 7).
Delivery vehicles were dosed intravenously in BALB/c mice at a total dose of 0.75 mg/kg mRNA and serum levels of aRSV were compared after 24 hours by an IgG ELISA.

[1] = Percent encapsulated mRNA, RiboGreen assay; format: physicochemical; settings: Table 5; delivery vehicle comprising the peptoid, Formulation D22, fLuc mRNA
In short: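 Modified RiboGreen fluorescence assay on Fluc mRNA formulations diluted to 500 ng/ml in Tris-EDTA. Samples were read with and without Triton X-100 lysis (2% for 10 min in one protocol). Percent encapsulation was derived from the fluorescence ratio of intact versus lysed particles.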

[2] = RBC hemolysis as metric for fusogenicity; format: cell-based; settings: sheep red blood cells (RBCs), 5% v/v, Table 5, delivery vehicle, 37° C. 45 min
In short: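 Sheep RBCs at 5% v/v in 20 mM citrate/140 mM NaCl pH 5.5 or PBS, exposed to LNPs at […] in well, 37 °C for 45 min. Supernatant absorbance at 425 nm; % hemolysis normalized to 2% Triton full lysis and buffer-only control.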

[3] = Apparent particle pKa, TNS fluorescence assay; format: physicochemical; settings: Table 5; apparent particle pKa of delivery vehicle
Procedure: The apparent particle pKa was assessed by a TNS fluorescence assay. Briefly, particles were diluted to 130 uM total lipid in TNS buffer ranging in pH 3-11 for 10 minutes with […] of TNS probe. The fluorescence was measured at room temperature in a plate reader ex 320/em 445. Fluorescence intensity was normalized to the minimal and maximal values and the pKa was determined by a 3 parameter fit to determine the half maximum of the curve.

[4] = Particle size and polydispersity (PDI) of delivery vehicles by dynamic light scattering; format: physicochemical; settings: Table 5; delivery vehicle comprising the peptoid, Formulation D22, fLuc mRNA
In short: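 Delivery vehicle complexes were diluted in PBS to 2 ng/μL and measured by DLS. The cumulant fit of the correlation function gave PDI and hydrodynamic diameter in nm.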

[5] = pH 5, read-out: Hemolysis at pH 5
[6] = pH 7, read-out: Hemolysis at pH 7

Which “serum levels of aRSV (secreted protein expression)” value (BALB/c mice) does the source give for CCCCCCN(CC(N)=O)C(=O)CN(CC(CC)CCCC)C(=O)CN(CC(CC)CCCC)C(=O)CN(CCCCCC)C(=O)CN(CC(CC)CCCC)C(=O)CN(CC(CC)CCCC)C(=O)CNC(CO)CO (stereo not shown) [Compound 12] (H-[N(CH(CH2OH)2)Gly][N(2-ethylhexyl)Gly][N(2-ethylhexyl)Gly][NHexGly][N(2-ethylhexyl)Gly][N(2-ethylhexyl)Gly][NHexGly]-NH2) here?
Its value is “lowest aRSV expression of the top 4 candidates”.

And the “% Encapsulation” value [1]?
Its value is 97.4%.

And the hemolysis at 45 min, 150 mM total lipid [2, 5]?
Its hemolysis at 45 min, 150 mM total lipid is 52.1%.

What about the hemolysis at 45 min, 150 mM total lipid [2, 6] of the same molecule?
Its hemolysis at 45 min, 150 mM total lipid is 1.5%.

What about the “pKa (TNS)” value [3] of the same molecule?
Its value is 6.018.

What about the PDI [4] of the same molecule?
The PDI was 0.32.

What about the “Particle Size (nm)” value [4] of the same molecule?
The value was 91.4 nm.

What does the source list for CCCCCCCCCCCCN(CC(=O)N(CC(=O)N(CC(=O)N(CCCCCCCCCCCC)CC(=O)N(CC(=O)N(CC(N)=O)CC(CC)CCCC)CC(CC)CCCC)CC(CC)CCCC)CC(CC)CCCC)C(=O)CNC(CO)CO (stereo not shown) [Compound 31] (H-[N(CH(CH2OH)2)Gly][Gly(N-dodecyl)][N(2-ethylhexyl)Gly][N(2-ethylhexyl)Gly][Gly(N-dodecyl)][N(2-ethylhexyl)Gly][N(2-ethylhexyl)Gly]-NH2)?
secreted protein (serum aRSV) expression in vivo, comparison of monomer order isomers (BALB/c mice): within error; % Encapsulation [1]: 86.9%; hemolysis at 45 min, 150 mM total lipid [2, 5]: 5.8%; hemolysis at 45 min, 150 mM total lipid [2, 6]: 2%; pKa (TNS) [3]: 6.523; PDI [4]: 0.1; Particle Size (nm) [4]: 80.8 nm

What does the source list for CCCCCCCCCCCCN(CC(=O)N(CC(N)=O)CC(CC)CCCC)C(=O)CN(CCCCCC)C(=O)CN(CC(CC)CCCC)C(=O)CN(CCCCCCCCCCCC)C(=O)CN(CCCCCC)C(=O)CNC(CO)CO (stereo not shown) [Compound 34] (H-[N(CH(CH2OH)2)Gly][NHexGly][Gly(N-dodecyl)][N(2-ethylhexyl)Gly][NHexGly][Gly(N-dodecyl)][N(2-ethylhexyl)Gly]-NH2)?
serum levels of aRSV (secreted protein expression) (BALB/c mice): highest levels of secreted protein expression; % Encapsulation [1]: 71.2%; hemolysis at 45 min, 150 mM total lipid [2, 5]: 11.8%; hemolysis at 45 min, 150 mM total lipid [2, 6]: 27.6%; pKa (TNS) [3]: 6.374; PDI [4]: 0.093; Particle Size (nm) [4]: 118.4 nm

Which “serum levels of aRSV (secreted protein expression)” value (BALB/c mice; 0.75 mg/kg) does the source give for CCCCCCCCCCCCN(CC(=O)N(CC(=O)N(CC(=O)N(CCCCCCCCCCCC)CC(=O)N(CC(N)=O)CC(CC)CCCC)CC(CC)CCCC)CC(CC)CCCC)C(=O)CN(CC(CC)CCCC)C(=O)CNC(CO)CO (stereo not shown) [Compound 41] (H-[N(CH(CH2OH)2)Gly][N(2-ethylhexyl)Gly][Gly(N-dodecyl)][N(2-ethylhexyl)Gly][N(2-ethylhexyl)Gly][Gly(N-dodecyl)][N(2-ethylhexyl)Gly]-NH2) here?
The value was “highest levels of secreted protein expression; also recorded: highest overall aRSV titers”.

What about the “secreted protein (serum aRSV) expression in vivo, comparison of monomer order isomers” value (BALB/c mice) of the same molecule?
The value was “within error”.

What about the “dependence of serum aRSV titers on injected dose” value (BALB/c mice; Compound 41 in Formulation D22, 0.3, 0.75, and 1.5 mg/kg) of the same molecule?
The value was “generally linear dependence on injected dose”.

And the “time aRSV titers were observed in the serum” value (BALB/c mice; Compound 41 in Formulation D22, mice, post-dosing)?
The value was > 5 days.

What about the “% Encapsulation” value [1] of the same molecule?
Its value is 94.2%.

And the hemolysis at 45 min, 150 mM total lipid [2, 5]?
The hemolysis at 45 min, 150 mM total lipid was 4.5%.

What about the hemolysis at 45 min, 150 mM total lipid [2, 6] of the same molecule?
Its hemolysis at 45 min, 150 mM total lipid is 2.9%.

And the “pKa (TNS)” value [3]?
Its value is 6.068.

And the PDI [4]?
The PDI was 0.15.

What about the “Particle Size (nm)” value [4] of the same molecule?
Its value is 75.7 nm.
